Data as given in US5578570A, “Method of treating septic shock using thymosin β4” (The George Washington University Medical Center, priority 1994, dated 1996).

Assays:
Format in all cases: in vivo
endotoxic mice = experiment: Survival of Swiss Webster mice following lethal endotoxin dose and Tβ4; conditions: for Survival (No. mice alive): Table VII, immediately following, 2 and 4 hrs after endotoxin, 10 mice at 0 hrs
Method: Swiss-Webster mice 4-6 weeks of age (20-25 g) were housed 6 per cage. The mice were divided into 2 groups: endotoxic mice (endotoxin 60 mg/kg i.p. in acute treatment) and endotoxic mice treated with Tβ4, 5 minutes and 2, 4, 6, 8, 10, 12, 14, 16, 18, 20, 22, 24 hours post administration of the endotoxin. Survival was recorded 2 times a day for 7 days.
Swiss-Webster mice 4-6 weeks of age (20-25 g) were divided into groups as follows.
1. Mice treated with a lethal dose of endotoxin (60 mg/kg).
2. […]
3. […]
4. […]

T × β2 = experiment: T×β2 levels in a septic shock model in rat; conditions: rats with septic shock + Tβ4 1 mg/rat × 3
Excerpt: (§1) Using a septic shock model in rats (Sprague-Dawley, male, 200-225 g each), the effect of thymosin β4 alone and together with antibiotics was studied. Peritonitis was induced in rats in the following way. A 1-cm incision was made into the peritoneal which exposed the cecum. A tight ligature was placed around the cecum with 4-0 suture distal to the insertion of the small bowel, forming an area of devitalized tissue while maintaining bowel continuity. A puncture wound was made with 16-gauge needle into the anti-mesenteric surface of the cecum and a small amount of fecal contents was expressed through the wound. The cecum was replaced into the peritoneal cavity, and the anterior peritoneal wall and skin were closed with surgical staples. Each animal was given a bolus of normal saline (15 ml/kg) for hydration and allowed to recover overnight.
(§2) The results presented in Tables XV to XVIII below show effects of Tβ4 respectively on rat cytokine levels, blood malonyldialdehyde levels, glutathione levels and arachidonic acid metabolic levels.

cGMP = cGMP cerebellar levels in mice treated with lethal doses of endotoxin; conditions: endotoxin 60 mg/kg i.p. + Tβ4 0.8 mg/kg i.p.
Excerpt: (§3) The results presented in Tables III-V below show effects of Tβ4 respectively on mice cerebellar cGMP levels, blood serum TNF-α levels, and blood serum TNF-α and IL-1α levels.

TNF-α = experiment: Serum TNF-α levels in mice treated with lethal doses of endotoxin; conditions: for TNF-α (serum level): Table XIII, endotoxin 60 mg/kg + Tβ4 100 μg administered immediately after endotoxin
Excerpt: as §3
(§4) Using the same methods and materials as in examples 1-3, the effect which Tβ4 has on blood levels of IL-1α, TNF-α, PAG, Txβ2 and 6-keto-PGF1 α, which are pathological mediators of endotoxin induced lethality, was studied.

malonyldialdehyde = experiment: Lipid peroxidation (blood malonyldialdehyde) in a septic shock model in rat; conditions: for Blood Levels of malonyldialdehyde: rats with septic shock + Tβ4 1 mg/rat × 3
Excerpt: as §1, §2

glutathione = experiment: Glutathione levels in a rat septic shock model; conditions: for RBC GSH: rats with septic shock + 1 mg/rat × 3
Excerpt: as §1, §2

PAF = PAF blood levels in mice after lethal dose of endotoxin; conditions: endotoxin 60 mg/kg + Tβ4 100 μg administered simultaneously; for PAF (plasma levels): Table IX; for PAF (serum levels): Table XII
Excerpt: as §4

6-keto-PGF1 = 6-keto-PGF1 levels in a septic shock model in rat; conditions: rats with septic shock + Tβ4 1 mg/rat × 3
Excerpt: as §1, §2

IL1 α = experiment: IL1α levels in a septic shock model in rat; conditions: rats with septic shock + Tβ4 1 mg/rat × 3
Excerpt: as §1, §2

IL-1α = experiment: Serum IL-1α levels in mice treated with lethal dose of endotoxin; conditions: Table V; pretreatment (SOD 3.3 × 10^4 μ/kg, 30 minutes before endotoxin; Tβ4 100 μg/mice); blood collected 1 hr after endotoxin
Excerpt: as §3, §4

[1] = during sepsis, with Tβ4 administration

Substance: Thymosin β4 [Tβ4]
- Survival (No. mice alive) (endotoxic mice; endotoxin 60 mg/kg + Tβ4 10 μg 3x i.p., 96 hrs): 3
- Survival (No. mice alive) (endotoxic mice; endotoxin 60 mg/kg + Tβ4 10 μg 3x i.p., 5 days): 3
- Survival (No. mice alive) (endotoxic mice; endotoxin 60 mg/kg + Tβ4 10 μg 3x i.p., 6 days): 3
- Survival (No. mice alive) (endotoxic mice; endotoxin 60 mg/kg + Tβ4 20 μg 3x i.p., 24 hrs): 5
- Survival (No. mice alive) (endotoxic mice; endotoxin 60 mg/kg + Tβ4 20 μg 3x i.p., 48 hrs): 4
- Survival (No. mice alive) (endotoxic mice; endotoxin 60 mg/kg + Tβ4 20 μg 3x i.p., 72 hrs): 4
- Survival (No. mice alive) (endotoxic mice; endotoxin 60 mg/kg + Tβ4 20 μg 3x i.p., 96 hrs): 3
- Survival (No. mice alive) (endotoxic mice; endotoxin 60 mg/kg + Tβ4 20 μg 3x i.p., 5 days): 3
- Survival (No. mice alive) (endotoxic mice; endotoxin 60 mg/kg + Tβ4 20 μg 3x i.p., 6 days): 3
- Survival (No. mice alive) (endotoxic mice; endotoxin 60 mg/kg + Tβ4 50 μg 3x i.p., 24 hrs): 9
- Survival (No. mice alive) (endotoxic mice; endotoxin 60 mg/kg + Tβ4 50 μg 3x i.p., 48 hrs): 7
- Survival (No. mice alive) (endotoxic mice; endotoxin 60 mg/kg + Tβ4 50 μg 3x i.p., 72 hrs): 7
- Survival (No. mice alive) (endotoxic mice; endotoxin 60 mg/kg + Tβ4 50 μg 3x i.p., 96 hrs): 7
- Survival (No. mice alive) (endotoxic mice; endotoxin 60 mg/kg + Tβ4 50 μg 3x i.p., 5 days): 7
- Survival (No. mice alive) (endotoxic mice; endotoxin 60 mg/kg + Tβ4 50 μg 3x i.p., 6 days): 7
- survival rate (endotoxic mice; Tβ4 administered 3 times post administration of endotoxin): 100%
- most effective protective dose (endotoxic mice; administered three times): 100 µg
- survival of mice treated with endotoxin (in words) (endotoxic mice; administered three times in doses of 50 μg and 20 μg): partially increased the survival
- survival rate (endotoxic mice; lethal endotoxin shock, endotoxin 60 mg/kg i.p., Example 1): ≤ 100%
- T × β2 (T × β2): 1627 ± 123 pg/mL
- Cerebellar cortex cyclic GMP (cGMP): 12.1 ± 0.9 pmol per mg/protein
- Serum TNF-α (TNF-α; Table IV, endotoxin 60 mg/kg + Tβ4 100 μg, 1 hr): 823 ± 79 pg/mL
- Serum TNF-α (TNF-α; Table IV, endotoxin 60 mg/kg + Tβ4 100 μg, 3 hr): 535 ± 47 pg/mL
- Serum TNF-α (TNF-α; Table IV, endotoxin 60 mg/kg + Tβ4 100 μg, 5 hr): 480 ± 45 pg/mL
- Serum TNF-α (TNF-α; Table V, pretreatment (SOD 3.3 × 10^4 μ/kg, 30 minutes before endotoxin; Tβ4 100 μg/mice), blood collected 1 hr after endotoxin): 321 ± 26.2 pg/mL
- TNF-α (serum level) (TNF-α; 1 hr): 807 pg/mL
- TNF-α (serum level) (TNF-α; 3 hr): 591 pg/mL
- TNF-α (serum level) (TNF-α; 5 hr): 496 pg/mL
- peroxidation of lipids in blood (malonyldialdehyde), in words (malonyldialdehyde; [1]): returned to normal or about normal
- Blood Levels of malonyldialdehyde (malonyldialdehyde; first value column): 19.6 ± 1.7 nNol MDA
- Blood Levels of malonyldialdehyde (malonyldialdehyde; second value column): 16.8 ± 1.5 nNol MDA
- circulating blood levels of glutathione (in words) (glutathione; [1]): returns circulatory gluthathine levels to normal or about normal
- RBC GSH (glutathione; first value column): 1.45 ± 0.11 μmoles/ml cells
- RBC GSH (glutathione; second value column): 1.39 ± 0.12 μmoles/ml cells
- PAF (plasma levels) (PAF; 0.5 hr.): 63 ± 7 pg/mL
- PAF (plasma levels) (PAF; 1 hr): 161 ± 17 pg/mL
- PAF (plasma levels) (PAF; 2 hr): 66 ± 5 pg/mL
- PAF (plasma levels) (PAF; 3 hr): 46 ± 5 pg/mL
- PAF (serum levels) (PAF; 1 hr): 807 pg/mL
- PAF (serum levels) (PAF; 3 hr): 591 pg/mL
- PAF (serum levels) (PAF; 5 hr): 496 pg/mL
- 6-keto-PGF1 (6-keto-PGF1): 829 ± 59 pg/mL
- IL1 α (IL1 α): 853 ± 62 pg/mL
- Serum IL-1α (IL-1α): 298 ± 20 pg/mL
